Assay results as given in patent publication US8420145B2, “Isosorbide derivatives and their use as flavor modifiers, tastants, and taste enhancers” (Senomyx, Inc., priority 2008, dated 2013).
Several values for one entry are separate records, joined by “and”; a condition that tells them apart may be missing. Identical values can stand only once. Each block holds one compound with its values, some of them ahead of it.

Tests used:
[1] = Time-intensity testing: panelists rate umami intensity over 70 seconds; format: in vivo, human; details: for Average Intensity-at-Max (umami intensity): scale 0 to 100
Description: Overview: Panelists Evaluate Various Solutions for Umami Intensity Over Time.
General procedure: Samples presented to panelists include various concentrations of MSG and compounds of interest. Samples may contain 0.1% ethanol to assist in dissolving compounds into solution. Samples are three-digit blind coded and served in 20 ml volumes. Samples are presented to panelists in randomized, counterbalanced order. All data is collected using the Compusense five software program. Umami intensity is rated on a scale from 0 to 100 (0=no umami intensity; 100=strong umami intensity). Panelists sip a sample and begin rating umami intensity. Panelists move the mouse on the horizontal scale to correspond to the umami intensity they perceive. Panelists continue rating the intensity for 70 seconds, and then expectorate the sample. The software program records an intensity score for each panelist for each 1 second period during the sample evaluation.
After tasting each sample, panelists sip and swish water in the mouth for a few seconds and expectorate. They may repeat this several times. Panelists wait 30 minutes before tasting the next sample.
Data analysis: Time-intensity curves are created for each of the samples and various parameters of the test are compared statistically.
To create the graphical representation of the sample: For each of the 70 seconds of the evaluation, panelists individual scores are averaged and presented graphically. For example, each panelist's intensity score at time=0 seconds is averaged and plotted. The same calculation is made for each of the 70 seconds to create the time-intensity curve.
To evaluate the Time to Maximum Intensity parameter: A time-intensity curve is created for each panelist. […] The specific time scores for each panelist are averaged. Next, the average scores for the various samples are compared using ANOVA, and multiple comparisons are performed using Tukey's Honestly Significant Difference test at alpha=0.05.

un-induced I-17 cells = assay: FLIPR assay on un-induced I-17 cells (no mifepristone, receptor not expressed); format: cell-based
Description: In order to determine the dependency of hT1R1/hT1R3 for the cell response to different stimuli, selected compounds were subjected to a similar analysis on I-17 cells that had not been induced for receptor expression with mifepristone (designated as un-induced I-17 cells). […] Compounds were presented to un-induced umami cells at 10 μM-or three times the maximum stimulation used in the dose-response analysis.

[2] = 15 ppm (41.62 uM) in Low Sodium Buffer pH 7.1, n = 33
[3] = 2.5 ppm (6.86 uM) in Low Sodium Buffer pH 7.1, n = 36
[4] = 12 mM in Low Sodium Buffer pH 7.1, n = 33
[5] = 12 mM in Low Sodium Buffer pH 7.1, n = 36
[6] = 16 mM in Low Sodium Buffer pH 7.1, n = 36

Structure (SMILES): O=C(N[C@H]1CO[C@H]2[C@@H]1OC[C@@H]2n1cc(CC2CCCCC2)nn1)C1CC1 [Example 1, N-((3S,3αR,6S,6αR)-6-(4(cyclohexylmethyl)-1H-1,2,3-triazol-1-yl)-hexahydrofuro[13,2-b]furan-3-yl)cyclopropanecarboxamide]
- Average Time-to-Max (time to maximum umami intensity) [1, 2]: 14.9 s
- average intensity at maximum compared with Sample 1 (12 mM MSG), Tukey's HSD test ([1]; 15 ppm (41.62 uM), p<0.05): significantly more savory
- average intensity at maximum compared with Sample 2 (16 mM MSG), Tukey's HSD test ([1]; 15 ppm (41.62 uM), p>0.1): not significantly different
- average time to maximum intensity compared with Sample 2 (16 mM MSG), Tukey's HSD test ([1]; 15 ppm (41.62 uM), p>0.1): not significantly different
- Average Intensity-at-Max (umami intensity) [1, 2]: 57

- melting point: 181.5 to 182.5 °C
Structure (SMILES): O=C(CCCC1CCCCC1)N[C@H]1CO[C@H]2[C@@H]1OC[C@@H]2NC(=O)C1CC1 [Example 29, N-((3S,3αR,6S,6αR)-6-(4cyclohexylbutanamido)hexahydrofuro-[3,2-b]furan-3-yl)cyclopropanecarboxamide]
- average time to maximum intensity compared with Sample 4 (12 mM MSG) and Sample 5 (16 mM MSG), Tukey's HSD test ([1]; 2.5 ppm (6.86 uM)): not significantly different
- Average Time-to-Max (time to maximum umami intensity) [1, 3]: 18.3 s
- average intensity at max compared with Sample 4 (12 mM MSG) or Sample 5 (16 mM MSG), Tukey's HSD test ([1]; 2.5 ppm (6.86 uM), p>0.1): not significantly different
- Average Intensity-at-Max (umami intensity) [1, 3]: 57.9

Structure (SMILES): N[C@@H](CCC(=O)O)C(=O)[O-].[Na+] [monosodium glutamate, Monosodium Glutamate]
- functional response in the FLIPR assay (un-induced I-17 cells): do not show any functional response
- Average Time-to-Max (time to maximum umami intensity) [1, 4]: 15.9 s
- Average Time-to-Max (time to maximum umami intensity) [1, 5]: 18.8 s
- Average Time-to-Max (time to maximum umami intensity) ([1]; 16 mM in Low Sodium Buffer pH 7.1, n = 33, listed as Sample 2): 17 s and 17.7 s
- Average Time-to-Max (time to maximum umami intensity) [1, 6]: 16.3 s
- Average Intensity-at-Max (umami intensity) [1, 4]: 45.3
- Average Intensity-at-Max (umami intensity) [1, 5]: 49.8
- Average Intensity-at-Max (umami intensity) ([1]; 16 mM in Low Sodium Buffer pH 7.1, n = 33): 53.8
- Average Intensity-at-Max (umami intensity) [1, 6]: 62.9
